# Measurements: US7326686B2, “Compounds and methods for regulating cell adhesion” (Adherex Inc., priority 1997, dated 2008)
# Where no end group is shown, it is not given here.
# What was measured:
# [1] = test system: Schwann cell migration on astrocytes; test: Micro-inverted-coverslip migration assay on astrocyte monolayers; assay type: cell-based, rat
# Description: Schwann cell migration may generally be evaluated using a micro-inverted-coverslip assay. In this assay, a dense Schwann cell culture is established on coverslip fragments and Schwann cell migration away from the fragment edge is measured. Briefly, Schwann cells fluorescently labeled with Di-I may be plated on polylysine- and laminin-coated fragments of a glass coverslip and allowed to bind to the surface for 16-18 hours. Cells may then be washed (e.g., in Hanks medium) to remove non-attached cells, and then inverted, with cells facing downward onto an astrocyte-coated surface. Cultures are then incubated further for 2 days in the presence or absence of modulating agent (e.g., LRAHAVDING (SEQ ID NO: 21) at a concentration of 1 mg/mL) and fixed. The maximum migration distance from the edge of the coverslip fragment may then be measured. At a level of 1 mg/mL, modulating agent results in an increase or decrease in the maximum migration distance of at least 50%. This assay evaluates the effect of a modulating agent on N-cadherin mediated cell adhesion.
# In order to assess the rates of Schwann cell migration on different surfaces, the micro-inverted-coverslip migration assay was employed. This is a variation of the technique first described by Fok-Seang et al., Dev. Biol. 171:1-15, 1995. Schwann cells fluorescently labeled with Di-I (25 μg/ml) were evenly plated onto polylysine and laminin coated fragments of glass coverslip (1×2 mm). After 16-18 hours, the pieces of glass coated with Di-I labeled Schwann cells were dipped into Hanks three times to remove any loosely attached cells and then inverted with cells facing downwards onto laminin-coated tissue culture surfaces or onto cell monolayers. These cultures were then incubated for a further two days and fixed for 20 minutes with 4% paraformaldehyde. The maximum migration distance was measured, and the number of cells in bands of 0.1 mm progressing outwards from the edge of the coverslip were counted.
# In this assay, a dense Schwann cell culture is established on coverslip fragments and their migration away from its edge measured. The assay therefore measures the ability of Schwann cells to migrate on a surface, and their ability to migrate away from a confluent Schwann cell monolayer. The migration front of the foremost cells was measured, and the number of cells against distance of migration plotted. Schwann cell-laden fragments were placed on laminin to give a baseline migration rate on a favorable defined surface, and laminin controls were done for comparison on each assay.
# [2] = test system: Schwann cell-astrocyte adhesion; test: Schwann cell-astrocyte adhesion assay (Dil-labelled Schwann cells on astrocyte monolayer, shaking platform 30 min); assay type: cell-based, rat
# Description: The effect of a modulating agent on Schwann cell adhesion to astrocytes may generally be evaluated using a cell adhesion assay. Briefly, Schwann cells fluorescently labeled with Di-I may be plated onto an astrocytic surface (e.g., a glass coverslip coated with a monolayer of astrocytes) and incubated on a shaking platform (e.g., 25 rpm for 30 minutes) in the presence and absence of modulating agent (e.g., LRAHAVDING (SEQ ID NO: 21) at a concentration of 1 mg/mL). Cells may then be washed (e.g., in Hanks medium) to remove non-attached cells. The attached cells may then be fixed and counted (e.g., using a fluorescent microscope). In general, 1 mg/mL of a modulating agent results in an increase or decrease in cell adhesion of at least 50%. This assay evaluates the effect of a modulating agent on N-cadherin mediated cell adhesion.
# In order to test whether the migratory behavior of Schwann cells on different cell types was a function of adhesivity to the substratum, Dil-labeled Schwann cells were plated onto either astrocytic, fibroblasts, Schwann cell or laminin surfaces. 20,000 Dil-labeled Schwann cells were placed in a 15 mm diameter well in 0.5 ml of medium over a 13 mm glass coverslip coated with laminin, or a complete monolayer of astrocytes, fibroblasts or Schwann cells and then placed onto a shaking platform (25 rpm) for 30 minutes in an incubator. The coverslips were washed three times in Hanks after 30 minutes to remove any non-attached cells and the remainder were fixed for 20 minutes in 4% paraformaldehyde. The number of Dil-labeled Schwann cells that were attached to the coverslip were counted using a Leitz Diaplan fluorescent microscope under rhodamine optics.
# In order to reduce extracellular calcium, DMEM was replaced by S-MEM (Joklik's modification; Gibco) with 0.2 mM calcium chloride added or the calcium buffer EGTA (Sigma) was employed. Adhesion assays in the absence of external calcium were performed using Schwann cells and astrocytes. Either a low calcium solution (S-MEM in place of DMEM with 0.2 mM calcium chloride) or a calcium buffer (EGTA in a normal DMEM medium) was used in these assays. […] EGTA concentrations less than 1.3 mM had little effect upon Schwann cell migration whereas those above 1.8 mM caused disruption of the astrocytic monolayer (data not shown). Adhesion of Schwann cells to astrocytes in the presence of the standard DMEM based medium was taken as the control and assigned the normalized value of 1.0±0.03. Low calcium solutions reduced intercellular adhesion to 0.47±0.09 and the addition of 1.6 mM EGTA to DMEM reduced adhesion to 0.39±0.05 (FIG. 10A). […]
# [3] = peptide 1 mg/ml, adhesion in the absence of peptide = 1.0±0.05, mean±S.E.M.
compound,measurement,setting,value
O=C(O)CN(CCOCCOCCN(CC(=O)O)CC(=O)O)CC(=O)O [EGTA],extent of Schwann cell migration upon astrocyte monolayers,"[1]; EGTA 1.6 mM, control migration 0.25±0.03",0.86 mm
same,concentrations causing disruption of the astrocytic monolayer,[1]; data not shown,above 1.8 mM
same,concentrations with little effect upon Schwann cell migration,[1]; data not shown,less than 1.3 mM
same,optimal concentration for Schwann cell migration,[1]; various concentrations of EGTA tested (data not shown),1.6 mM
same,"Schwann cell-astrocyte adhesion, normalized","[2]; 1.6 mM EGTA added to DMEM, standard DMEM control = 1.0±0.03",0.39±0.05
LRAHAVDING-NH2,"Schwann cell-astrocyte adhesion, normalized",[2]; [3],0.38±0.07
LRAHGVDING-NH2,"Schwann cell-astrocyte adhesion, normalized",[2]; [3],0.78±0.10
MRAHAVDING-NH2,"Schwann cell-astrocyte adhesion, normalized",[2]; [3],0.39±0.04
